Test results from PubChem BioAssay (NCI).
Values joined by “and” are separate entries in the source; they are usually repeats but may differ in a detail not shown here. Identical values can stand only once.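 Cells were grown in 96-well plates and exposed to each compound for 48 hours at five concentrations; endpoints were interpolated linearly between bracketing concentrations, or set to the highest concentration if not reached. GI50 marks 50% less growth. The concentration for full growth arrest is given as TGI.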

Tests used:
Assay in all cases: DTP human tumour cell line panel, 48 h
[1] = system: ACHN renal
[2] = system: SF-295 CNS
[3] = system: HOP-92 NSCLC
[4] = system: COLO 205 colon
[5] = system: SNB-75 CNS
[6] = system: NCI-H23 lung
[7] = system: HCT-116 colon
[8] = system: UACC-257 melanoma
[9] = system: SR leukemia
[10] = system: OVCAR-5 ovarian

| Structure (SMILES) | TGI [1] [µM] | TGI [2] | TGI [3] [µM] | TGI [4] [µM] | TGI [5] | TGI [6] [µM] | TGI [7] [µM] | TGI [8] [µM] | TGI [9] [µM] | TGI [10] [µM] | GI50 [1] [µM] | GI50 [2] [µM] | GI50 [3] | GI50 [4] [µM] | GI50 [5] | GI50 [6] | GI50 [7] [µM] | GI50 [8] [µM] | GI50 [9] | GI50 [10] [µM] |
| --- | --- | --- | --- | --- | --- | --- | --- | --- | --- | --- | --- | --- | --- | --- | --- | --- | --- | --- | --- | --- |
| COc1ccc(/C=C\c2cc(OC)c3c(c2)OCO3)c(O)c1O | 32.7 | 36.8 µM | 16.1 | 45.1 | 15.5 µM | 22.3 | 17.7 | 53.4 | > 41.5 | 55 |  |  |  |  |  |  |  |  |  |  |
| CC(C)c1ccc(C(C)C(=O)N(CC2=C(C(C)c3ccccn3)c3ccccc3C2)C(C)C)cc1 (stereo not drawn) | > 100 | 7.65 µM | 12.8 | 3.23 | > 100 µM | 53.6 | 8.02 | 38.3 | 9.58 | 95.9 | 3.22 | 2.3 | 1.98 µM | 1.75 | 3.17 µM | 3.35 µM | 1.94 | 3.43 | 2.67 µM | 5.33 |
| CC1(C)COC(c2ccc(C(F)(F)F)cc2C(O)c2ccc3ccccc3c2)=N1 (stereo not drawn) | > 100 | > 10 µM and 42.5 µM | > 100 | > 100 | > 10 µM and 37.9 µM | > 100 | > 10 | > 100 | > 10 | > 100 | > 100 | > 10 |  | > 100 | > 10 µM | > 10 µM |  | > 100 |  | > 100 |
| C[C@@H](CS(C)(=O)=O)Nc1ncc2cc(Oc3ccc(F)cc3F)c(=O)n(C)c2n1 | > 25 | > 25 µM | > 25 | > 25 | > 25 µM | > 25 | > 25 | > 25 | > 25 | > 25 | > 25 | > 25 | > 6.75 µM | > 25 | > 25 µM | > 25 µM | > 25 | > 25 | > 25 µM | > 25 |
| COc1cc2nc(C)nc(N[C@H](C)c3cc(N)cc(C(F)(F)F)c3)c2cc1O[C@H]1CCOC1 | 23.9 | 24.8 µM | 7.31 | 33.4 | 23.3 µM | 30.6 | 29.6 | 30.5 | 29.2 | 28.5 | 11.6 | 11.6 | 0.0623 µM | 15.8 | 10.4 µM | 13.2 µM | 11.4 | 16.1 | 2.25 µM | 13.4 |
| O=C1c2cccnc2-c2nc(-c3ccccc3[N+](=O)[O-])cc3c2c1nc1ccccc13 | > 92.2 | > 85.9 µM | > 100 | > 62.4 | 52 µM | 18.9 | 16.7 | 13.3 | > 100 | 33.4 | 9.03 | 25.9 | 8.7 µM | 24.4 | 17.3 µM | 3.67 µM | 5.83 | 2.01 | 96.1 µM | 6.99 |
| Cc1nc2c(nc1C)C(=O)c1ccccc1C2=O | 35.4 | 4.38 µM | 45 | 5.57 | 6.15 µM | 2.59 | 13 | 4.3 | 28.2 | 9.62 |  |  |  |  |  |  |  |  |  |  |
| CC(=O)N1[C@H](C(=O)O)CS[C@H]1c1ccncc1 | > 100 | > 100 µM | > 100 | > 100 | > 100 µM | > 100 | > 100 | > 100 | > 100 | > 100 |  |  |  |  |  |  |  |  |  |  |
| COc1cc(C(=O)/C=C/c2sc(Cl)nc2Cl)cc(OC)c1OC | 3.12 | 4.71 µM | 3.19 | 3.9 | 3.8 µM | 3.04 | 3.18 | 4.23 | 3.23 | 3.27 | 1.74 | 2.09 | 1.6 µM | 1.72 | 1.66 µM | 1.64 µM | 1.75 | 2.01 | 0.384 µM | 1.72 |
| COC(=O)[C@@H](C)C[C@H](Cc1ccc(F)cc1)NC(=O)c1csc([C@@H](C[C@H](C(C)C)N(C)C(=O)[C@@H](NC(=O)[C@H]2CCCCN2C)C(C)C)OC(C)=O)n1 | > 16.7 | > 16.7 µM | 11.8 | 0.0651 | > 16.7 µM | > 16.7 | 0.225 | > 16.7 | > 16.7 | > 16.7 | 0.134 |  | 0.215 µM and 0.0783 µM | 0.00641 | 0.000986 µM and 0.00522 µM | 0.00355 µM and 0.0134 µM |  | > 16.7 | 0.000437 µM and 0.00167 µM |  |
| Fc1ccc(Nc2ncnc3ccc(-c4cnc5[nH]ccc5c4)cc23)cc1Cl | 2.49 | 11.2 µM | 5.49 | 46.3 | 3.42 µM | > 100 | 3.63 | > 100 | > 100 | 10.6 | 0.602 | 2.73 | 1.68 µM | 3.58 | 1.23 µM | 8.74 µM | 1.77 | 13.5 | 2.68 µM | 2.13 |
| NC(CSC(c1ccccc1)(c1ccccc1)c1ccc2c(c1)OCO2)C(=O)O (stereo not drawn) | > 100 | > 48.4 µM | 36.9 | 1.15 | 7.06 µM | 32 | 29.6 | > 100 | 0.868 | > 100 | 4.06 | 0.352 | 0.75 µM | 0.325 | 0.283 µM | 0.545 µM | 0.358 | 2.52 | 0.285 µM | 7.22 |
| O=C(O)C(Cc1ccccc1)N1C(=O)N/C(=C\c2ccc(F)cc2)C1=O (stereo not drawn) | > 100 | > 100 µM | > 100 | > 100 | > 100 µM | > 100 | > 100 | > 100 | > 100 | > 100 |  |  |  |  |  |  |  |  |  |  |
| COc1cc2nc(-c3ccc(C(F)(F)F)cc3)cc(OCCCN3CCC(O)CC3)c2cc1OC | 16.7 | 3.83 µM | 9.64 | 12.1 | 10.8 µM | 21 | 17.2 | 6.5 | 16.6 | 20.7 | 3.18 | 1.61 | 1.68 µM | 0.456 | 2.58 µM | 6.16 µM | 0.671 | 2.28 | 0.274 µM | 3.14 |
| Cc1cc2nc(C(Cl)Cl)nc(-c3ccc(Cl)cc3)n2n1 | 2.24 | 4.75 µM | 4.66 | 2.67 | 4.34 µM | 2.42 | > 33.1 | 5.49 | > 21.1 | 5.56 | 0.386 | 1.3 | 1.53 µM | 0.603 | 1.1 µM | 0.479 µM | 0.566 | 2.3 | 0.372 µM | 1.85 |
| Cc1cc(=O)n2[nH]c(-c3ccc(C(C)(C)C)cc3)cc2n1 | > 100 | 22.7 µM | 51.6 | > 100 | 46.8 µM | 80.6 | > 100 | 49.6 | > 100 | > 100 | 5.65 | 2.47 | 6.6 µM | 11.3 | 7.9 µM | 4.03 µM | 8.25 | 4.32 | 8.03 µM | 17.7 |
| COc1ccc(NC(=O)c2cc(OC)cc(OC)c2)cc1 | > 100 | > 64.5 µM | > 100 | > 42.8 | > 83.6 µM | > 100 | > 100 | > 100 | > 100 | > 100 |  |  |  |  |  |  |  |  |  |  |
| O=C1C2=C(SCCS2)C(=O)c2ccccc21 | 3.05 | 3.14 µM | 3.05 | 2.96 | 3.03 µM | 3.34 | 3.04 | 3.45 | 5.33 | 3.23 |  |  |  |  |  |  |  |  |  |  |
| C=CCc1cc(OC)c2c(c1)C(O)CC(c1ccc(OC)c(OC)c1)O2 (stereo not drawn) | > 100 | > 100 µM | > 100 | > 100 | > 100 µM | > 100 | > 100 | > 100 | > 100 | > 100 |  |  |  |  |  |  |  |  |  |  |
| COc1ccc(-c2cc(-c3ccc(Nc4nc(Nc5ccccc5)nc(Nc5ccc(Cl)cc5)n4)cc3)nc(N)c2C#N)cc1 | 1.77 | 7.28 µM | 2.62 | 2.15 | 2.71 µM | 13.6 | 1.37 | 3.15 | 2.94 | 2.86 | 0.885 | 1.54 | 0.782 µM | 1 | 0.737 µM | 1.72 µM | 0.675 | 1.25 | 0.582 µM | 1.13 |
| O=c1n(CC2CO2)c(=O)n(CC2CO2)n1CC1CO1 (stereo not drawn) | > 100 | > 100 µM | > 100 | 41.5 | > 100 µM | > 100 | > 100 | 95.6 | > 100 | > 100 | 2.69 | 3.65 | 49.3 µM | 6.04 | 15.8 µM | 22.7 µM | 18.9 | 13 |  | 63.1 |
| O=C(O)c1cc(C(=O)O)cc(N2C(=O)c3ccccc3C2=O)c1 | > 100 | > 100 µM | > 100 | > 100 | > 100 µM | > 100 | > 100 | > 100 | > 100 | > 100 |  |  |  |  |  |  |  |  |  |  |
